# In patent US9890185B2, “Urea derivatives useful as kinase inhibitors” (Respivert Limited, priority 2013, dated 2018):
# Legend:
# [1] = target: p38 MAPKα isoform (MAPK14) (Homo sapiens (Human), UniProt Q16539); experiment: p38 MAPKα enzyme inhibition (FRET, Z-LYTE, Method 2); format: biochemical
# How it was run: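 Z-LYTE FRET: p38 MAPKα (80 ng/mL for Method 1, 200 ng/mL for Method 2, pre-dilution) preincubated 2 hr RT with compound (4–0.004 μg/mL solutions), activity read via MAPKAP-K2 phosphorylation after 1 hr RT and 1 hr protease development. Coumarin/fluorescein ratio gives phosphorylation; % inhibition versus uninhibited control, IC50 from concentration-response curve.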
# HT29 cells = experiment: IL-1β-induced IL-8 release in HT29 cells (assay d); format: cell-based; conditions: Homo sapiens, HT-29; IL-1β-stimulated HT29 cells; read-out: IC50 Values for Inhibition of Cytokine Release, HT29 cells IL-8
# Description: HT29 cells, a human colon adenocarcinoma cell line, are plated in a 96 well plate (24 hrs) and pre-treated with compounds at the desired concentration for 2 hours before addition of 5 ng/mL of IL-1β (Abcam) for 24 hours. Supernatants are harvested for IL-8 quantification by Sandwich ELISA (Duo-set, R&D System). The IC50 is determined from the dose response curve.
# PBMCs = experiment: Cell mitosis assay in PBMCs (assay g); format: cell-based; conditions: Homo sapiens, PBMC, test compound 5 μg/mL
# How it was run: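 Human PBMCs from healthy donors, stimulated with 2% PHA for 48 hr, then exposed to test compounds for 20 hr, with demecolcine (0.1 μg/mL) added 2 hr before harvest. Cells fixed/permeabilised, stained for phospho-histone 3 and propidium iodide, and read by flow cytometry gated on lymphocytes. % mitosis inhibition vs 0.5% DMSO vehicle.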
# Sequence of p38 MAPKα isoform (MAPK14) (Q16539 whole entry, canonical isoform): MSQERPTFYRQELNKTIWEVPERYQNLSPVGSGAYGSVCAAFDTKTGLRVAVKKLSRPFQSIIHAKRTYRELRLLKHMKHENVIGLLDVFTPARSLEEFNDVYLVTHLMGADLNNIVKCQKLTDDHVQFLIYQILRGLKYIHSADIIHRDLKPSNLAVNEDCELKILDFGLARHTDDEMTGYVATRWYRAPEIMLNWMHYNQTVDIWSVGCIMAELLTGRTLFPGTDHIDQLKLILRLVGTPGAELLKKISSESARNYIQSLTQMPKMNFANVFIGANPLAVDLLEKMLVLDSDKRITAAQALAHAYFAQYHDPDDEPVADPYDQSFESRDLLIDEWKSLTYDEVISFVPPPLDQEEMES
Structure (SMILES),IC50 [1] [nM],IC50 (HT29 cells) [nM],inhibition at 5 µg/mL (PBMCs) [%]
"COCCOCCOCCOc1cc(Nc2cc(Oc3ccc(NC(=O)Nc4cc(C(C)(C)C)cc(CS(C)(=O)=O)c4OC)c4ccccc34)ccn2)cc(OC)c1 [15(a), 1-(5-(tert-butyl)-2-methoxy-3-((methylsulfonyl)methyl)phenyl)-3-(4-((2-((3-methoxy-5-(2-(2-(2-methoxyethoxy)ethoxy)ethoxy)phenyl)amino)pyridin-4-yl)oxy)naphthalen-1-yl)urea]",177,4.2,56.8
"COc1c(NC(=O)Nc2ccc(Oc3ccnc(Nc4cccnc4)c3)c3ccccc23)cc(C(C)(C)C)cc1P(C)(C)=O [15(ad), 1-(5-(tert-butyl)-3-(dimethylphosphoryl)-2-methoxyphenyl)-3-(4-((2-(pyridin-3-ylamino)pyridin-4-yl)oxy)naphthalen-1-yl)urea]",181,,31
"COc1cc(F)cc(Nc2cc(Oc3ccc(NC(=O)Nc4cc(C(C)(C)C)cc(P(C)(C)=O)c4OC)c4ccccc34)ccn2)c1 [15(an), 1-(5-(tert-butyl)-3-(dimethylphosphoryl)-2-methoxyphenyl)-3-(4-((2-((3-fluoro-5-methoxyphenyl)amino)pyridin-4-yl)oxy)naphthalen-1-yl)urea]",344,,50.3
"COc1c(NC(=O)Nc2ccc(Oc3ccnc(Nc4cnn(C)n4)n3)c3ccccc23)cc(C(C)(C)C)cc1P(C)(C)=O [15(x), 1-(5-(tert-butyl)-3-(dimethylphosphoryl)-2-methoxyphenyl)-3-(4-((2-((2-methyl-2H-1,2,3-triazol-4-yl)amino)pyrimidin-4-yl)oxy)naphthalen-1-yl)urea]",219,,18.4
"COc1c(CC(N)=O)cc(C(C)(C)C)cc1NC(=O)Nc1ccc(Oc2ccnc(NCc3ccccn3)c2)c2ccccc12 [38(d), 2-(5-(tert-Butyl)-2-methoxy-3-(3-(4-((2-((pyridin-2-ylmethyl)amino)pyridin-4-yl)oxy)naphthalen-1-yl)ureido)phenyl)acetamide]",13,,28.1
"COc1c(CC(N)=O)cc(C(C)(C)C)cc1NC(=O)Nc1ccc(Oc2ccnc(Nc3cc(C)cc(C)c3)c2)c2ccccc12 [38(f), 2-(5-(tert-Butyl)-3-(3-(4-((2-((3,5-dimethylphenyl)amino)pyridin-4-yl)oxy)naphthalen-1-yl)ureido)-2-methoxyphenyl)acetamide]",226,4.8,37.8
"CNC(=O)Cc1cc(C(C)(C)C)cc(NC(=O)Nc2ccc(Oc3ccnc(Nc4cccc(OC)c4)c3)c3ccccc23)c1OC [38(h), 2-(5-(tert-Butyl)-2-methoxy-3-(3-(4-((2-((3-methoxyphenyl)amino)pyridin-4-yl)oxy)naphthalen-1-yl)ureido)phenyl)-N-methylacetamide]",123,,30.3
"COc1cc(Nc2cc(Oc3ccc(NC(=O)Nc4cc(C(C)(C)C)cc(CC(N)=O)c4OC)c4ccccc34)ccn2)ccn1 [38(k), 2-(5-(tert-Butyl)-2-methoxy-3-(3-(4-((2-((2-methoxypyridin-4-yl)amino)pyridin-4-yl)oxy)naphthalen-1-yl)ureido)phenyl)acetamide]",152,,70.5
"COc1cc(CO)cc(Nc2cc(Oc3ccc(NC(=O)Nc4cc(C(C)(C)C)cc(CC(N)=O)c4OC)c4ccccc34)ccn2)c1 [38(m), 2-(5-(tert-Butyl)-3-(3-(4-((2-((3-(hydroxymethyl)-5-methoxyphenyl)amino)pyridin-4-yl)oxy)naphthalen-1-yl)ureido)-2-methoxyphenyl)acetamide]",48,,77.4
"COc1cncc(Nc2cc(Oc3ccc(NC(=O)Nc4cc(C(C)(C)C)cc(CC(N)=O)c4OC)c4ccccc34)ccn2)c1 [38(n), 2-(5-(tert-butyl)-2-methoxy-3-(3-(4-((2-((5-methoxypyridin-3-yl)amino)pyridin-4-yl)oxy)naphthalen-1-yl)ureido)phenyl)acetamide]",43,,66.1
"COc1c(CC(N)=O)cc(C(C)(C)C)cc1NC(=O)Nc1ccc(Oc2ccnc(Nc3ccn(C)n3)c2)c2ccccc12 [38(o), 2-(5-(tert-Butyl)-2-methoxy-3-(3-(4-((2-((1-methyl-1H-pyrazol-3-yl)amino)pyridin-4-yl)oxy)naphthalen-1-yl)ureido)phenyl)acetamide]",9,,83.2
"COc1c(CNC(C)=O)cc(C(C)(C)C)cc1NC(=O)Nc1ccc(Oc2ccnc(NCc3ccccn3)c2)c2ccccc12 [38(q), N-(5-(tert-Butyl)-2-methoxy-3-(3-(4-((2-((pyridin-2-ylmethyl)amino)pyridin-4-yl)oxy)naphthalen-1-yl)ureido)benzyl)acetamide]",6,,82.1
"COCCOCCOCCOc1cc(Nc2cc(Oc3ccc(NC(=O)Nc4cc(C(C)(C)C)cc(P(C)(C)=O)c4OC)c4ccccc34)ccn2)cc(OC)c1 [Example 2, 1-(5-(tert-Butyl)-3-(dimethylphosphoryl)-2-methoxyphenyl)-3-(4-((2-((3-methoxy-5-(2-(2-(2-methoxyethoxy)ethoxy)ethoxy)phenyl)amino)pyridin-4-yl)oxy)naphthalen-1-yl)urea]",51,1.7,58.9
"COCCOCCOCCOc1cc(Nc2nccc(Oc3ccc(NC(=O)Nc4cc(C(C)(C)C)cc(C(=O)NCCN5CCOCC5)c4OC)c4ccccc34)n2)cc(OC)c1 [Example 8, 5-(tert-Butyl)-2-methoxy-3-(3-(4-((2-((3-methoxy-5-(2-(2-(2-methoxyethoxy)ethoxy)-ethoxy)phenyl)amino)pyrimidin-4-yl)oxy)naphthalen-1-yl)ureido)-N-(2-morpholinoethyl)-benzamide]",188,,58.1
"COc1c(CP(C)(C)=O)cc(C(C)(C)C)cc1NC(=O)Nc1ccc(Oc2ccnc(Nc3ccccc3)c2)c2ccccc12 [Example 24, 1-(5-(tert-Butyl)-3-((dimethylphosphoryl)methyl)-2-methoxyphenyl)-3-(4-((2-(phenylamino)-pyridin-4-yl)oxy)naphthalen-1-yl)urea]",220,,37.9
"COc1c(C[S+](C)[O-])cc(C(C)(C)C)cc1NC(=O)Nc1ccc(Oc2ccnc(Nc3ccccc3)c2)c2ccccc12 (centres unmarked) [Example 25, 1-(5-(tert-Butyl)-2-methoxy-3-((methylsulfinyl)methyl)phenyl)-3-(4-((2-(phenylamino)pyridin-4-yl)oxy)naphthalen-1-yl)urea]",323,,24.5
"COc1c(NC(=O)Nc2ccc(Oc3ccnc(Nc4cc(C)cc(C)c4)c3)c3ccccc23)cc(C(C)(C)C)cc1P(C)(C)=O [Example 28, 1-(5-(tert-Butyl)-3-(dimethylphosphoryl)-2-methoxyphenyl)-3-(4-((2-((3,5-dimethylphenyl)-amino)pyridin-4-yl)oxy)naphthalen-1-yl)urea]",254,,54.4
"COc1cccc(Nc2cc(Oc3ccc(NC(=O)Nc4cc(C(C)(C)C)cc(CC(N)=O)c4OC)c4ccccc34)ccn2)c1 [Example 33, 2-(5-(tert-Butyl)-2-methoxy-3-(3-(4-((2-((3-methoxyphenyl)amino)pyridin-4-yl)oxy)naphthalen-1-yl)ureido)phenyl)acetamide]",109,,31.3
"COc1c(CNC(C)=O)cc(C(C)(C)C)cc1NC(=O)Nc1ccc(Oc2ccnc(Nc3ccccc3)c2)c2ccccc12 [Example 35, N-(5-(tert-Butyl)-2-methoxy-3-(3-(4-((2-(phenylamino)pyridin-4-yl)oxy)naphthalen-1-yl)ureido)benzyl)acetamide]",294,,50.6
"COc1cc(Nc2cc(Oc3ccc(NC(=O)Nc4cc(C(C)(C)C)cc([S+](C)[O-])c4OC)c4ccccc34)ccn2)ccc1C(=O)NCCN1CCOCC1 (centres unmarked) [Example 72, 4-((4-((4-(3-(5-(tert-Butyl)-2-methoxy-3-(methylsulfinyl)phenyl)ureido)naphthalen-1-yl)oxy)pyridin-2-yl)amino)-2-methoxy-N-(2-morpholinoethyl)benzamide]",32,,36.8
"COc1cc(Nc2cc(Oc3ccc(NC(=O)Nc4cc(C(C)(C)C)cc(CC(N)=O)c4OC)c4ccccc34)ccn2)ccc1C(=O)NCC(CO)(CO)CO [Example 73, 4-((4-((4-(3-(3-(2-Amino-2-oxoethyl)-5-(tert-butyl)-2-methoxyphenyl)ureido)naphthalen-1-yl)oxy)pyridin-2-yl)amino)-N-(3-hydroxy-2,2-bis(hydroxymethyl)propyl)-2-methoxybenzamide]",31,,19.8
"COCCOCCOCCNC(=O)c1cc(Nc2cc(Oc3ccc(NC(=O)Nc4cc(C(C)(C)C)cc(CNC(=O)CN(C)C)c4OC)c4ccccc34)ccn2)cc(OC)c1 [Example 77, 3-((4-((4-(3-(5-(tert-Butyl)-3-((2-(dimethylamino)acetamido)methyl)-2-methoxyphenyl)ureido)naphthalen-1-yl)oxy)pyridin-2-yl)amino)-5-methoxy-N-(2-(2-(2-methoxyethoxy)ethoxy)ethyl)benzamide]",20,,58.7
